Results published in ChEMBL document CHEMBL4354781, “Drug-resistance in Mycobacterium tuberculosis: where we stand” (2019).
≈ marks a conversion by molar mass, not a printed value. Numbered stars: 1 amine (or outer) side, 2 acyl side, 3 side chain; on linkers, the order of the positions; unused ones are H or OH. Bridge positions count the residues as written; N and C are the ends. Square brackets hold non-standard residues; d marks the D form. Peptide text beside a SMILES is read from it. * marks the point of attachment. X1 = N=C1NCC[C@H]([C@H](N[*:1])C(=O)[*:2])N1; ΔAla(Z-3-ureido) = NC(=O)N/C=C(\N)C(=O)O; β3hOrn = NCCC[C@H](N)CC(=O)*; Dap = NC[C@H](N)C(=O)O

Columns and labels:
Format in all cases: functional
[1] = tested on: Mycobacterium tuberculosis; test: Antitubercular activity against resistant Mycobacterium tuberculosis harboring rrs A1401G mutant after 3 to 6 weeks
[2] = tested on: Mycobacterium tuberculosis; test: Antitubercular activity against resistant Mycobacterium tuberculosis harboring rrs A1401G mutant
[3] = tested on: Mycobacterium tuberculosis; test: Antitubercular activity against resistant Mycobacterium tuberculosis harboring embCAB Met306IIe/Val mutant
[4] = tested on: Mycobacterium tuberculosis; test: Antitubercular activity against resistant Mycobacterium tuberculosis harboring embCAB Gly406Asp/Ala mutant
[5] = tested on: Mycobacterium tuberculosis; test: Antitubercular activity against resistant Mycobacterium tuberculosis Bangladesh isolate harboring katG Ser315Thr mutant
[6] = tested on: Mycobacterium tuberculosis; test: Antitubercular activity against resistant Mycobacterium tuberculosis TDR harboring inhA Promoter (c-15 t) mutant
[7] = tested on: Mycobacterium tuberculosis; test: Antitubercular activity against resistant Mycobacterium tuberculosis TDR harboring inhA Promoter (c-15 t)/IIe21Thr mutant
[8] = tested on: Mycobacterium tuberculosis; test: Antitubercular activity against resistant Mycobacterium tuberculosis Bangladesh isolate harboring inhA Promoter (c-15 t)/IIe21Thr mutant
[9] = tested on: Mycobacterium tuberculosis; test: Antitubercular activity against resistant Mycobacterium tuberculosis TDR harboring katG Ser315Thr mutant
[10] = tested on: Mycobacterium tuberculosis; test: Antitubercular activity against resistant Mycobacterium tuberculosis Bangladesh isolate harboring inhA Promoter (c-15 t)/Ser94Ala mutant
[11] = tested on: Mycobacterium tuberculosis; test: Antitubercular activity against resistant Mycobacterium tuberculosis TDR harboring inhA Promoter (c-15 t)/Ser94Ala mutant
[12] = tested on: Mycobacterium tuberculosis; test: Antitubercular activity against resistant Mycobacterium tuberculosis Bangladesh isolate harboring inhA Promoter (c-15 t)
[13] = tested on: Mycobacterium tuberculosis; test: Antitubercular activity against resistant Mycobacterium tuberculosis harboring rrs G1484T/C-12T mutant after 3 to 6 weeks
[14] = tested on: Mycobacterium tuberculosis; test: Antitubercular activity against resistant Mycobacterium tuberculosis harboring rrs G37T mutant after 3 to 6 weeks
[15] = tested on: Mycobacterium tuberculosis; test: Antitubercular activity against resistant Mycobacterium tuberculosis harboring rrs C1402T mutant after 3 to 6 weeks
[16] = tested on: Mycobacterium tuberculosis; test: Antitubercular activity against resistant Mycobacterium tuberculosis harboring gyrB T511N mutant incubated for 28 days by absolute concentration method
[17] = tested on: Mycobacterium tuberculosis; test: Antitubercular activity against resistant Mycobacterium tuberculosis harboring gyrA Asp94Gly mutant incubated for 28 days by absolute concentration method
[18] = tested on: Mycobacterium tuberculosis; test: Antitubercular activity against resistant Mycobacterium tuberculosis harboring gyrA Asp94His mutant incubated for 28 days by absolute concentration method
[19] = tested on: Mycobacterium tuberculosis; test: Antitubercular activity against resistant Mycobacterium tuberculosis harboring gyrB Ala90Val mutant incubated for 28 days by absolute concentration method
[20] = tested on: Mycobacterium tuberculosis; test: Antitubercular activity against resistant Mycobacterium tuberculosis harboring gyrA Asp94Tyr mutant incubated for 28 days by absolute concentration method
[21] = tested on: Mycobacterium tuberculosis; test: Antitubercular activity against resistant Mycobacterium tuberculosis harboring gyrA Asp94Asn mutant incubated for 28 days by absolute concentration method
[22] = tested on: Mycobacterium tuberculosis; test: Antitubercular activity against multidrug resistant Mycobacterium tuberculosis
[23] = tested on: Mycobacterium tuberculosis; test: Antitubercular activity against resistant Mycobacterium tuberculosis harboring rplC Cys154Arg mutant
[24] = tested on: Mycobacterium tuberculosis; test: Antitubercular activity against resistant Mycobacterium tuberculosis harboring pncA D8N mutant incubated for 3 weeks
[25] = tested on: Mycobacterium tuberculosis; test: Antitubercular activity against resistant Mycobacterium tuberculosis harboring pncA Cys138S mutant incubated for 3 weeks
[26] = tested on: Mycobacterium tuberculosis; test: Antitubercular activity against resistant Mycobacterium tuberculosis 7 harboring rpoB His526Tyr mutant by absolute concentration-microtiter method
[27] = tested on: Mycobacterium tuberculosis; test: Antitubercular activity against resistant Mycobacterium tuberculosis 76 harboring rpoB Ser531Leu mutant after 4 weeks by absolute concentration-microtiter method
[28] = tested on: Mycobacterium tuberculosis; test: Antitubercular activity against resistant Mycobacterium tuberculosis 75 harboring rpoB Ser531Leu mutant after 4 weeks by absolute concentration-microtiter method
[29] = tested on: Mycobacterium tuberculosis; test: Antitubercular activity against resistant Mycobacterium tuberculosis 26 harboring rpoB Ser531Leu mutant after 4 weeks by absolute concentration-microtiter method
[30] = tested on: Mycobacterium tuberculosis; test: Antitubercular activity against resistant Mycobacterium tuberculosis 74 harboring rpoB His526Tyr mutant by absolute concentration-microtiter method
[31] = tested on: Mycobacterium tuberculosis; test: Antitubercular activity against resistant Mycobacterium tuberculosis 3 harboring rpoB Ser531Leu mutant after 4 weeks by absolute concentration-microtiter method
[32] = tested on: Mycobacterium tuberculosis; test: Antitubercular activity against resistant Mycobacterium tuberculosis 8 harboring rpoB His526Pro mutant by absolute concentration-microtiter method
[33] = tested on: Mycobacterium tuberculosis; test: Antitubercular activity against resistant Mycobacterium tuberculosis 5 harboring rpoB His526Tyr mutant by absolute concentration-microtiter method
[34] = tested on: Mycobacterium tuberculosis; test: Antitubercular activity against resistant Mycobacterium tuberculosis 1 harboring rpoB Ser531Leu mutant after 4 weeks by absolute concentration-microtiter method
[35] = tested on: Mycobacterium tuberculosis; test: Antitubercular activity against resistant Mycobacterium tuberculosis 4 harboring rpoB Ser531Leu mutant after 4 weeks by absolute concentration-microtiter method
[36] = tested on: Mycobacterium tuberculosis; test: Antitubercular activity against resistant Mycobacterium tuberculosis 23 harboring rpoB His526Asp mutant by absolute concentration-microtiter method
[37] = tested on: Mycobacterium tuberculosis; test: Antitubercular activity against resistant Mycobacterium tuberculosis 72 harboring rpoB His526Asp mutant by absolute concentration-microtiter method
[38] = tested on: Mycobacterium tuberculosis; test: Antitubercular activity against resistant Mycobacterium tuberculosis 6 harboring rpoB Ser531Leu mutant after 4 weeks by absolute concentration-microtiter method
[39] = tested on: Mycobacterium tuberculosis; test: Antitubercular activity against resistant Mycobacterium tuberculosis 21 harboring rpoB Ser531Leu mutant after 4 weeks by absolute concentration-microtiter method
[40] = tested on: Mycobacterium tuberculosis; test: Antitubercular activity against resistant Mycobacterium tuberculosis 73 harboring rpoB His526Tyr mutant by absolute concentration-microtiter method
[41] = tested on: Mycobacterium tuberculosis; test: Antitubercular activity against resistant Mycobacterium tuberculosis 2 harboring rpoB Ser531Leu mutant after 4 weeks by absolute concentration-microtiter method

N=C1NCC[C@H]([C@@H]2NC(=O)/C(=C/NC(N)=O)NC(=O)[C@H](CNC(=O)C[C@@H](N)CCCN)NC(=O)[C@H](CO)NC(=O)[C@@H](N)CNC2=O)N1 (H-[Dap]S[Dap](β3hOrn)[ΔAla(Z-3-ureido)][X1]; lactam 1-C)
MIC [1]: >2.5 µg/mL

NCC[C@H](O)C(=O)N[C@@H]1C[C@H](N)[C@@H](O[C@H]2O[C@H](CN)[C@@H](O)[C@H](O)[C@H]2O)[C@H](O)[C@H]1O[C@H]1O[C@H](CO)[C@@H](O)[C@H](N)[C@H]1O [AMIKACIN]
MIC [2]: 4 µg/mL (≈ 6.83 µM)

CC[C@@H](CO)NCCN[C@@H](CC)CO [ETHAMBUTOL]
MIC [3]: 10 to 50 µg/mL | MIC [4]: 10 to 50 µg/mL

NNC(=O)c1ccncc1 [ISONIAZID]
MIC [5]: >19.2 µg/mL | MIC [6]: 0.16 to 0.8 µg/mL | MIC [7]: 3.2 to 12.8 µg/mL | MIC [8]: 3.2 to 12.8 µg/mL | MIC [9]: >19.2 µg/mL | MIC [10]: 3.2 to 12.8 µg/mL | MIC [11]: 3.2 to 12.8 µg/mL | MIC [12]: 0.16 to 0.8 µg/mL (≈ 1.17 to 5.83 µM)

NC[C@H]1O[C@H](O[C@H]2[C@H](O)[C@@H](O[C@H]3O[C@H](CO)[C@@H](O)[C@H](N)[C@H]3O)[C@H](N)C[C@@H]2N)[C@H](O)[C@@H](O)[C@@H]1O [KANAMYCIN]
MIC [13]: >2.5 µg/mL | MIC [14]: >2.5 µg/mL | MIC [15]: >2.5 µg/mL | MIC [1]: >2.5 µg/mL

C[C@H]1COc2c(N3CCN(C)CC3)c(F)cc3c(=O)c(C(=O)O)cn1c23.C[C@H]1COc2c(N3CCN(C)CC3)c(F)cc3c(=O)c(C(=O)O)cn1c23.O [LEVOFLOXACIN]
MIC [16]: >1 µg/mL | MIC [17]: >10 µg/mL | MIC [18]: >10 µg/mL | MIC [19]: >1 µg/mL | MIC [20]: >10 µg/mL | MIC [21]: >10 µg/mL

CC(=O)NC[C@H]1CN(c2ccc(N3CCOCC3)c(F)c2)C(=O)O1 [LINEZOLID]
MIC [22]: 0.125 to 0.5 µg/mL (≈ 0.371 to 1.48 µM) | MIC [23]: >1 µg/mL

NC(=O)c1cnccn1 [PYRAZINAMIDE]
MIC [24]: >=400 - 800 ug ml-1 | MIC [25]: >=400 - 800 ug ml-1

CO[C@H]1/C=C/O[C@@]2(C)Oc3c(C)c(O)c4c(O)c(c(/C=N/N5CCN(C)CC5)c(O)c4c3C2=O)NC(=O)/C(C)=C\C=C\[C@H](C)[C@H](O)[C@@H](C)[C@@H](O)[C@@H](C)[C@H](OC(C)=O)[C@@H]1C [RIFAMPIN]
MIC [26]: >=2 - 200 ug ml-1 | MIC [27]: >=2 - 200 ug ml-1 | MIC [28]: >=2 - 200 ug ml-1 | MIC [29]: >=2 - 200 ug ml-1 | MIC [30]: >=2 - 200 ug ml-1 | MIC [31]: >=2 - 200 ug ml-1 | MIC [32]: >=2 - 200 ug ml-1 | MIC [33]: >=2 - 200 ug ml-1 | MIC [34]: >=2 - 200 ug ml-1 | MIC [35]: >=2 - 200 ug ml-1 | MIC [36]: >=2 - 200 ug ml-1 | MIC [37]: >=2 - 200 ug ml-1 | MIC [38]: >=2 - 200 ug ml-1 | MIC [39]: >=2 - 200 ug ml-1 | MIC [40]: >=2 - 200 ug ml-1 | MIC [41]: >=2 - 200 ug ml-1
